Experimental data: the supplement of paper PMC8617591

Tests used:
[1] = test system: Mycobacterium tuberculosis Erdman (autoluminescent); test: AUC25, normalised area under dose response up to IC25 (fraction (0-1)); higher = more potent at low dose
Procedure: (§1)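 DiaMOND equipotent two-drug combination dose responses against autoluminescent M. tuberculosis Erdman in 8 in vitro models. Read-out is OD600, or luminescence for the intracellular and dormancy models, normalised to untreated wells. Hill-fit Einf, AUC25 and GRinf are potency metrics; FIC50 and FIC90 are Loewe-additivity fractional inhibitory concentrations, given as log2 (negative = synergy). Replicates are averaged.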

[2] = test system: Mycobacterium tuberculosis Erdman (autoluminescent); test: Einf, fitted maximum growth inhibition of combination (fraction); higher = stronger maximal inhibition
Procedure: as §1

[3] = test system: Mycobacterium tuberculosis Erdman (autoluminescent); test: FIC90 (Loewe) at 90% inhibition (log2); higher = more antagonistic
Procedure: as §1

[4] = test system: Mycobacterium tuberculosis Erdman (autoluminescent); test: GRinf, maximum normalised growth rate inhibition (unitless (-1 to 1)); higher = less effect (negative = killing)
Procedure: as §1

[5] = test system: Mycobacterium tuberculosis Erdman (autoluminescent); test: FIC50 (Loewe) at 50% inhibition (log2); higher = more antagonistic
Procedure: as §1

COc1c(N2C[C@@H]3CCCN[C@@H]3C2)c(F)cc2c(=O)c(C(=O)O)cn(C3CC3)c12 [moxifloxacin] + CO[C@H]1/C=C/O[C@@]2(C)Oc3c(C)c(O)c4c(O)c(c(/C=N/N5CCN(C)CC5)c(O)c4c3C2=O)NC(=O)/C(C)=C\C=C\[C@H](C)[C@H](O)[C@@H](C)[C@@H](O)[C@@H](C)[C@H](OC(C)=O)[C@@H]1C [rifampicin]
Details	AUC25, [1]	Einf, [2]	FIC50, [5]	FIC90, [3]	GRinf, [4]
in vitro model: acidic pH 5.7, time point: constant (~7 days, model-specific)	0.0689	0.781	0.367	–	0.0866
in vitro model: acidic pH 5.7, time point: terminal (~4-5 doublings, model-specific)	0.0663	0.968	0.382	0.156	-0.0508
in vitro model: intracellular J774, time point: constant = terminal	–	0.985	–	0.644	-0.307

Details	AUC25, [1]	Einf, [2]	FIC50, [5]	FIC90, [3]	GRinf, [4]
in vitro model: butyrate, time point: constant (~7 days, model-specific)	0.107	0.886	0.528	0.508	0.0889
in vitro model: butyrate, time point: terminal (~4-5 doublings, model-specific)	0.0896	0.956	0.435	0.598	0.0327
in vitro model: cholesterol 0.05 mM, time point: constant (~7 days, model-specific)	0.117	0.62	0.744	–	0.145
in vitro model: cholesterol 0.05 mM, time point: terminal (~4-5 doublings, model-specific)	0.091	0.885	0.35	-0.321	-0.0751
in vitro model: cholesterol-high 0.2 mM, time point: constant (~7 days, model-specific)	0.0744	0.8	0.432	–	-0.0793
in vitro model: cholesterol-high 0.2 mM, time point: terminal (~4-5 doublings, model-specific)	0.066	0.985	0.68	0.43	-0.57
in vitro model: dormancy (butyrate + nitrate, low O2), time point: constant (~7 days, model-specific)	0.071	0.923	0.513	-0.28	0.0564
in vitro model: dormancy (butyrate + nitrate, low O2), time point: terminal (~4-5 doublings, model-specific)	0.059	0.98	0.589	0.752	-0.197
in vitro model: standard 7H9 glycerol, time point: constant = terminal	0.0477	0.828	0.486	–	0.308
in vitro model: valerate, time point: constant (~7 days, model-specific)	0.04	0.842	0.724	–	0.085
in vitro model: valerate, time point: terminal (~4-5 doublings, model-specific)	0.0278	0.925	0.717	0.437	0.0646

COc1c(N2C[C@@H]3CCCN[C@@H]3C2)c(F)cc2c(=O)c(C(=O)O)cn(C3CC3)c12 [moxifloxacin] + NC(=O)c1cnccn1 [pyrazinamide]
Details	AUC25, [1]	Einf, [2]	FIC50, [5]	FIC90, [3]	GRinf, [4]
in vitro model: acidic pH 5.7, time point: constant (~7 days, model-specific)	0.105	0.748	-1.4	–	-0.479
in vitro model: acidic pH 5.7, time point: terminal (~4-5 doublings, model-specific)	0.0766	0.958	0.112	-1.08	-0.337
in vitro model: intracellular J774, time point: constant = terminal	–	0.992	–	0.544	-0.418

Details	AUC25, [1]	Einf, [2]	FIC50, [5]	FIC90, [3]	GRinf, [4]
in vitro model: butyrate, time point: constant (~7 days, model-specific)	0.114	0.922	0.244	0.945	-0.0871
in vitro model: butyrate, time point: terminal (~4-5 doublings, model-specific)	0.076	0.967	0.181	0.416	0.0175
in vitro model: cholesterol 0.05 mM, time point: constant (~7 days, model-specific)	0.12	0.628	–	–	0.0508
in vitro model: cholesterol 0.05 mM, time point: terminal (~4-5 doublings, model-specific)	0.135	0.936	-0.139	1.9	-0.173
in vitro model: cholesterol-high 0.2 mM, time point: constant (~7 days, model-specific)	0.0967	0.93	0.32	–	-0.314
in vitro model: cholesterol-high 0.2 mM, time point: terminal (~4-5 doublings, model-specific)	0.0857	0.997	0.528	0.356	-0.695
in vitro model: dormancy (butyrate + nitrate, low O2), time point: constant (~7 days, model-specific)	0.0895	0.921	-0.473	-0.106	0.0154
in vitro model: dormancy (butyrate + nitrate, low O2), time point: terminal (~4-5 doublings, model-specific)	0.0636	0.983	-0.404	-0.148	-0.105
in vitro model: standard 7H9 glycerol, time point: constant = terminal	0.0774	0.974	–	–	-0.163
in vitro model: valerate, time point: constant (~7 days, model-specific)	0.0818	0.834	0.51	–	-0.121
in vitro model: valerate, time point: terminal (~4-5 doublings, model-specific)	0.0462	0.917	0.399	0.0879	0.0483
